Experimental findings from patent US20140073694A1, “CYSTAMINE ANALOGUES FOR THE TREATMENT OF PARKINSON'S DISEASE” (UNIVERSITE LAVAL, priority 2011, published 2014) are described below.

Experiment [1] deals with 6-OHDA lesioned mice. The experiment in a line: Unilateral striatal 6-OHDA mouse model, neurorescue experiment. Format: in vivo, C57BL/6 mice. Particulars: 10 mg/kg daily for 14 days from 3 days post-lesion. On the procedure:
(§1) Young adult (9-week old, 25 grams) male C57BL/6 mice were purchased from Charles River Laboratories (Montréal, QC, Canada). Animals were housed 4 per cage under standard conditions with free access to food and water, randomized and handled under the same conditions by one investigator. All experiments were performed in accordance with the Canadian Council on Animal Care and were approved by the Institutional Committee of the Centre Hospitalier de l'Université Laval (CHUL). Throughout the experiment, the health status of all mice included in the study was closely monitored for weight loss or other signs of health-related issues. All efforts were made to minimize animal pain and discomfort.
(§2) This protocol was based on the unilateral stereotaxic intra-striatal injection of 6-hydroxydopamine (6-OHDA). Intrastriatal administration of 6-OHDA creates a progressive and retrograde degenerative changes in DA neurons of the substantia nigra (Bjorklund et al., 1997; Costantini et al., 2001). Mice were anaesthetized using isoflurane and placed onto a stereotactic frame adapted for mice. 6-OHDA was dissolved at a concentration of 2 μg/μl in 0.9% saline and 0.02% ascorbic acid and 2 μl was injected in the right striatum at a rate of 0.5 μl/min. The needle was left in place for 3 min after the injection before retraction. The injection was performed using an Hamilton syringe according to the stereotaxic co-ordinates: AP: +0.04 cm, ML: −0.18 cm, DV: −0.31 cm (corresponding to the atlas of Allan P. 2008).
To serve as controls, other mice were subjected to the same surgical procedures, but only 2 μl of solvent (0.9% saline and 0.02% ascorbic acid) was injected in the same coordinates. […]
The effects of cystamine on the 6-OHDA toxicity were studied in the following experimental groups: Group I, Sham+Saline; Group II, 6-OHDA+Saline; Group III; Sham+Cystamine; Group IV, 6-OHDA+Cystamine. In total, 40 mice (n=10 per group) were utilized for each experiment, monitored daily for weight variation, and ultimately sacrificed by perfusion 24 hrs after the last cystamine (or vehicle) injection. […]
(§3) Catecholamine quantification by HPLC, TH immunohistochemistry and in situ hybridization for Nurr1 and DAT were conducted as described in Example 1.
Levels of autoradiographic labelling were quantified by computerized densitometry. […] Optical density of the autoradiograms was translated in μCi/g of tissue using ^14C radioactivity standards (ARC 146-^14C standards, American Radiolabelled Chemicals Inc., St. Louis, Mo.). Nurr1 and DAT mRNA levels were measured in the substantia nigra compacta (SNc) using similar antero-posterior levels for all sections. […]

Experiment [2] deals with 6-OHDA lesioned mice. Briefly: Unilateral striatal 6-OHDA mouse model, neurorestoration experiment (behaviour and post-mortem). Format: in vivo, C57BL/6 mice. The method, then: as §1, §2
To serve as controls, other mice were subjected to the same surgical procedures, but only 2 μl of solvent (0.9% saline and 0.02% ascorbic acid) was injected in the same coordinates. The study was further divided into 2 distinct experiments: • 1) The neurorescuing effects of cystamine (cystamine dihydrochloride, Sigma, St. Louis, Mo.) in 6-OHDA leisoned mice. For this experiment, the first i.p. injection of 10 mg/kg cystamine was administered 3 days post surgery and the treatment continued daily for 14 days. • 2) The neurorestorative effects of cystamine (cystamine dihydrochloride, Sigma, St. Louis, Mo.) in 6-OHDA lesioned mice. The treatment of cystamine began 3 weeks post surgery, when the dopaminergic (DAergic) lesion is known to be stable and has reached its peak. The treatment was continued daily for 6 weeks.
The effects of cystamine on the 6-OHDA toxicity were studied in the following experimental groups: Group I, Sham+Saline; Group II, 6-OHDA+Saline; Group III; Sham+Cystamine; Group IV, 6-OHDA+Cystamine. In total, 40 mice (n=10 per group) were utilized for each experiment, monitored daily for weight variation, and ultimately sacrificed by perfusion 24 hrs after the last cystamine (or vehicle) injection.
Animals were sacrificed under deep anesthesia with ketamine/xylazine (Vetalar, Bioniche, Belleville, ON/Rompun, Bayer, Toronto, ON). All mice were subjected to intracardiac perfusion with RNAse free 0.1 M phosphate-buffered saline (PBS). After intracardiac perfusion, brains were collected and the posterior brain of each mice, comprising the entire mesencephalon, was post-fixed in 4% PFA for additional immunohistochemistry and in situ hybridization analyses. The anterior brain, comprising the right and left striatum, was snap-frozen and used for HPLC and WB analyses.
as §3
The loss of DAergic neurons was determined by stereological counts of TH-immunoreactive cells (identifiable somas) under bright-field illumination. Every 10th section through the SNc was analyzed using Stereo investigator software (MicroBrighffield, Colchester, Vt., USA) attached to an E800 Nikon microscope (Nikon Canada Inc., Mississauga, ON, Canada). After delineation of the SNc at low magnification (4× objective), a point grid was overlaid onto each section. […]

For `NCCSSCCN` [cystamine, Cystamine], in experiment [1], the “DAT mRNA levels in the SNpc (densitometry)” value is reported as “same pattern as observed for the TH staining” and the “Nurr1 mRNA levels in the SNpc (densitometry)” value is recorded as “same pattern as observed for the TH staining”. Moreover, the “striatal DA content by HPLC” value in experiment [1] (vs control mice) is on record as “significantly decreased levels of DA only in 6-OHDA mice treated with saline”. Moreover, in experiment [1] (6-OHDA+cystamine vs sham+cystamine), the “decrease in the total number of TH-positive neurons in the SNpc” value was 27%. In addition, in experiment [2] (10 mg/kg daily for 6 weeks from 3 weeks post-lesion), the “restoration of DA content in the lesioned striatum” value is reported as “did not significantly restore DA content”. For the same molecule, the “cylinder test, limb-use asymmetry (percentage of contralateral contacts)” value in experiment [2] (10 mg/kg daily for 6 weeks from 3 weeks post-lesion, 6 and 9 weeks post-lesion) is recorded as “asymmetry was not visible”. Also, the apomorphine-induced contralateral rotations result in experiment [2] (10 mg/kg daily for 6 weeks from 3 weeks post-lesion, 6 and 9 weeks post-surgery) is reported as “significantly attenuated by the cystamine treatment”. The “decrease of striatal DA levels measured by HPLC” value in experiment [2] (6-OHDA lesioned mice, 10 mg/kg daily for 6 weeks from 3 weeks post-lesion) stood at 84%. Also, the “decrease in the total number of TH-positive neurons in the SNpc” value in experiment [2] (6-OHDA+cystamine vs sham+cystamine, 10 mg/kg daily for 6 weeks from 3 weeks post-lesion) is 65%. In addition, the DA turnover result in experiment [2] (vs 6-OHDA mice treated with saline) is “strong tendency to normalise the DA turnover”.
